Read-outs that look alike come from different tables or passages of the source.
What was measured:
[1] = biological target: altC-SQR (altC) of D024 SDHC1 KO mitochondria (Zymoseptoria tritici, UniProt A0A1X7RQW2+F9X9V6+O42772); test: Succinate-quinone (SQR) SDHI sensitivity assay on purified mitochondria, 06STD024 SDHC1 KO; format: biochemical; settings: for RF (resistance factor), D024 SDHC1 KO (altC): IC50 ratio compared to IPO323 values; for IC50: mitochondria of 06STD024 ZtSDHC1 deletion mutant (pure altC-SQR), mean of three ± SD
Protocol: (§1) Succinate-ubiquinone oxidoreductase (SQR) inhibition assays were performed on mitochondrial extracts from a panel of strains that were (i) either carrying a unique C-subunit encoding gene (ZtSDHC1, ZtSDHC1_A84I or Zt-SDHC3), or (ii) carrying two C-subunit encoding genes ZtSDHC1 and ZtSDHC3 (Table 1).
(§2) Biomass production, mitochondrial extraction and purification were performed as described in [14]. Succinate: ubiquinone/DCPIP sensitivity tests were performed as described in [14] with minor modification.

[2] = biological target: SQR (SDHC) of D024 SDHC3 KO mitochondria (Zymoseptoria tritici, UniProt F9X9V6+F9XH52+O42772); test: Succinate-quinone (SQR) SDHI sensitivity assay on purified mitochondria, 06STD024 SDHC3 KO; format: biochemical; settings: for RF (resistance factor), D024 SDHC3 KO (SDHC): IC50 ratio compared to IPO323 values; for IC50: mitochondria of 06STD024 ZtSDHC3 deletion mutant, mean of three ± SD
Protocol: as §1
(§3) Biomass production, mitochondrial extraction and purification were performed as described in [14]. Succinate: ubiquinone/DCPIP sensitivity tests were performed as described in [14] with minor modification. The different mitochondrial suspensions were adjusted to similar initial velocity (1 OD595nm hour^-1) and inhibitor concentrations ranged between 0.047nM and 50μM with uniform 4x dilution steps (11 concentrations + DMSO control). Calculated absorbance slopes (OD/min) were used for IC50 calculations using GraphPad Prism 6.07 software non-linear curve fitting against log inhibitor concentrations.

[3] = biological target: SQR (SDHC / altC) of IPO323 pTet::SDHC3 transformant, repressed (Zymoseptoria tritici, UniProt A0A1X7RQW2+F9X9V6+F9XH52+O42772); test: Succinate-quinone (SQR) SDHI sensitivity assay on purified mitochondria, IPO323 pTet::SDHC3 repressed; format: biochemical; settings: for RF (resistance factor), pTet Repressed (SDHC / altC): IC50 ratio compared to IPO323 values; for IC50: IPO323 pTet::SDHC3 transformant grown in presence of 30 mg.L^-1 doxycycline, mean of three ± SD
Protocol: as §1, §2

[4] = biological target: WT-SQR (SDHC), IPO323 mitochondria (Zymoseptoria tritici, UniProt F9X9V6+F9XH52+O42772); test: Succinate-quinone (SQR) SDHI sensitivity assay on purified mitochondria, IPO323; format: biochemical
Protocol: as §1, §3

[5] = system: SQR (SDHC / altC) of IPO323 pTet::SDHC3 transformant, induced; test: Succinate-quinone (SQR) SDHI sensitivity assay on purified mitochondria, IPO323 pTet::SDHC3 induced; format: biochemical, Zymoseptoria tritici; settings: IPO323 pTet::SDHC3 transformant grown in the absence of doxycycline; mean of three ± SD
Protocol: as §1, §2

[6] = biological target: SQR of 06STD024 (SDHC / altC) mitochondria (Zymoseptoria tritici, UniProt A0A1X7RQW2+F9X9V6+F9XH52+O42772); test: Succinate-quinone (SQR) SDHI sensitivity assay on purified mitochondria, 06STD024; format: biochemical; settings: for RF (resistance factor), 06STD024 (SDHC / altC): IC50 ratio compared to IPO323 values; for IC50: mitochondria of field isolate 06STD024, mean of three ± SD
Protocol: as §1, §2

[7] = system: Zymoseptoria tritici isolates; test: Growth tests on solid agar at discriminatory fungicide concentrations; format: cell-based; settings: for Growth phenotype on SDHI-amended plate: AE agar, isofetamid 5 mg.L^-1, 10 DPI (procedure of Fig 6)
Text: Fig 6 Resistance to SHA-SDHIs in Z. tritici EU populations. […] Sensitivity data are sorted by genotype according to the presence of the ZtSDHC3 gene. ** p value of 0.0029 in Welch’s corrected unpaired t-test. (B) Solid agar growth of a collection of 93 Z. tritici isolates sampled in 2009 (same set as above). Individual strains from this collection are boxed and numbered 1 to 93. Boxes A and B correspond to reference resistant strains 06STD024 and 07STGB009 respectively. Box C corresponds to IPO323 reference sensitive isolate. The yellow framed boxes correspond to strains carrying the ZtSDHC3 gene. Yellow arrow designates strain 09STIR20.1 (number 78) carrying a non-functional alt-SDHC (frameshift, S6 Table).
A large scale spotting assay of 96 isolates (Fig 6) was performed using the V&P 96 floating pin tool VP408FP6 (V&P Scientific), equipped with flat tip FP6 pins of 1.58 mm diameter (resulting in approx. 0.4 μl transfer volume). Source cultures for cell spotting were grown in 100 μl YPD liquid medium in a 96 well flat bottom plate (Corning, 3370) at 18°C for 11 days (average cell density of 3.5·10^6/ml), then diluted 1:2x in fresh YPD medium and incubated for another 1.5 h before transfer with the pin tool (approx. 700 cells per spot) onto AE agar with or without fungicide. Plates were incubated at 20°C in the dark for up to 18 days. Smaller scale spotting assays (Figs 4 and 8) were performed using 5 days V8-agar plates inoculums adjusted to 2.10^6 spores.mL^-1 in water and diluted in steps of 3. 2μL of spore suspension was spotted on the plates, and the plates were incubated shielded from light at 21°C for 6 days.

[8] = system: Zymoseptoria tritici field and genetically modified strains; test: Liquid culture assay for fungicide sensitivity determination; format: cell-based; settings: Zymoseptoria tritici, liquid culture sensitivity
Protocol: Sensitivity towards commercial fungicides was determined for a set of 99 SHA-SDHI-naïve Z. tritici field isolates sampled in Europe between 2006 and 2009. The EC50 of these isolates was determined in liquid growth assays and the data obtained compared for each possible pair of SDHI fungicides (cross-resistance (XR) plots, Fig 1). […] Comparative succinate-quinone reductase (SQR) enzyme inhibition tests were performed with mitochondria extracted from a panel of SHA-SDHIs tolerant and sensitive isolates.
In order to characterize in more depth the mechanisms driving sensitivity differences across the isolates, a subset of eight isolates carrying the ZtSDHC3 gene was analyzed for their sensitivity to SDHIs, alt-SDHC expression and splicing patterns. Liquid culture growth sensitivity tests were performed to determine EC50s for this set of isolates towards a wide range of commercial and research SDHIs (S5 Table).
Pre-culture of the inoculum and fungicide sensitivity tests were performed following previously described procedures. Different ranges of inhibitor concentrations were used for population monitoring and for the detailed phenotyping of a selected set of individual field isolates and genetically modified strains. For fungicide sensitivity monitoring of European field populations, final inhibitors concentrations were between 100 mg.L^-1 and 0.0001 mg.L^-1 with uniform 10x dilution steps (7 inhibitor concentrations + DMSO control). For refined sensitivity analysis of a smaller panel of isolates final inhibitor concentrations ranged between 0.5 mM and 0.47 nM with uniform 4x dilution factor steps (11 inhibitor concentrations+ DMSO control).

[9] = read-out: EC50 (nM) Mean, strain 06STD024
[10] = read-out: EC50 (nM) Mean, strain 07STGB009
[11] = read-out: EC50 (nM) Mean, strain 09STD041
[12] = read-out: EC50 (nM) Mean, strain 09STD053
[13] = read-out: EC50 (nM) Mean, strain 09STF011
[14] = read-out: EC50 (nM) Mean, strain 09STF037
[15] = read-out: EC50 (nM) Mean, strain 09STF112
[16] = read-out: EC50 (nM) Mean, strain 09STIR20.3
[17] = read-out: EC50 (nM) Mean, strain Flu21 (SDHC1_A84I)
[18] = read-out: EC50 (nM) Mean, strain IPO323
[19] = read-out: EC50 (nM) Mean, strain IPO94269
[20] = read-out: EC50 (nM) Mean, strain KO_SDHC1_T1
[21] = read-out: EC50 (nM) Mean, strain KO_SDHC1_T3
[22] = read-out: EC50 (nM) Mean, strain KO_SDHC3_T4
[23] = read-out: EC50 (nM) Mean, strain KO_SDHC3_T13
[24] = read-out: EC50 (nM) Mean, strain pTet::SDHC3_I78A_T1
[25] = read-out: EC50 (nM) Mean, strain pTet::SDHC3_I78A_T5
[26] = read-out: EC50 (nM) Mean, strain pTet::SDHC3_I78A_T15
[27] = read-out: EC50 (nM) Mean, strain pTet::SDHC3_I78A_T35
[28] = read-out: EC50 (nM) Mean, strain pTet::SDHC3_T1
[29] = read-out: EC50 (nM) Mean, strain pTet::SDHC3_T2
[30] = read-out: EC50 (nM) Mean, strain pTet::SDHC3_T3
[31] = read-out: EC50 (nM) Mean, strain pTet::SDHC3_T7

Sequence of WT-SQR (SDHC), IPO323 mitochondria (F9WWR1 entry or part of it): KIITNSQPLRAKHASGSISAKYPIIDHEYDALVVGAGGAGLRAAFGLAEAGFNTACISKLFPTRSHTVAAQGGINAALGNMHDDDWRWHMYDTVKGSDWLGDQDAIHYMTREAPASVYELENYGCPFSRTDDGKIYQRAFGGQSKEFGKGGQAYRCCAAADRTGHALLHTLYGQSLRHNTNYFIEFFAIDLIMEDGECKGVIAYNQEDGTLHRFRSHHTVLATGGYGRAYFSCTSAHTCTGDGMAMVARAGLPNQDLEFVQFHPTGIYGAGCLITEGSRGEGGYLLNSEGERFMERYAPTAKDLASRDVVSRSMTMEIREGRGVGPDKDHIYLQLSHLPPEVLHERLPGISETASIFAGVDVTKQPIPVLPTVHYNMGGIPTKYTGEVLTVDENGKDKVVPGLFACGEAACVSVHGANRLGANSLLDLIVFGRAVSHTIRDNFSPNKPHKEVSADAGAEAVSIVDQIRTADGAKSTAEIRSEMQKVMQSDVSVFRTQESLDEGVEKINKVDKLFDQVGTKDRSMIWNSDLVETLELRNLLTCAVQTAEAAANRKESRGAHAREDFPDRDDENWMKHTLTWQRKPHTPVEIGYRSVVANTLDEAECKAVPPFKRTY
Sequence of WT-SQR (SDHC), IPO323 mitochondria (F9X9V6 entry or part of it): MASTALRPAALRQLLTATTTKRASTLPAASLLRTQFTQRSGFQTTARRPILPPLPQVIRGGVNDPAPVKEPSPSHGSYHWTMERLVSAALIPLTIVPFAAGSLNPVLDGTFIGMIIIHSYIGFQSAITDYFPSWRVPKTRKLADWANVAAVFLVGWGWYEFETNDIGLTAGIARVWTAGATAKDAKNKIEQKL
Sequence of WT-SQR (SDHC), IPO323 mitochondria (O42772 19-297): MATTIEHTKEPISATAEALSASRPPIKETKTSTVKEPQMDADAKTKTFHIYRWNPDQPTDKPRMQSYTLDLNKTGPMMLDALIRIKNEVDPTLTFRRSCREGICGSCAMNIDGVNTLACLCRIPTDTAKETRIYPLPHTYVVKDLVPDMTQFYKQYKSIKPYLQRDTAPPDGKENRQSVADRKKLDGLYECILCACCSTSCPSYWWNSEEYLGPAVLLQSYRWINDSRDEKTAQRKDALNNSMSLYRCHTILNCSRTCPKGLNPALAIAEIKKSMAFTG
Sequence of WT-SQR (SDHC), IPO323 mitochondria (F9XH52 entry or part of it): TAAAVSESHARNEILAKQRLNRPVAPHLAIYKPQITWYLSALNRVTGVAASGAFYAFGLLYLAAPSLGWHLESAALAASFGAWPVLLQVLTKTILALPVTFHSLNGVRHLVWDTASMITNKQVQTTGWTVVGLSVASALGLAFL
Sequence of SQR of 06STD024 (SDHC / altC) mitochondria (A0A1X7RQW2 36-181): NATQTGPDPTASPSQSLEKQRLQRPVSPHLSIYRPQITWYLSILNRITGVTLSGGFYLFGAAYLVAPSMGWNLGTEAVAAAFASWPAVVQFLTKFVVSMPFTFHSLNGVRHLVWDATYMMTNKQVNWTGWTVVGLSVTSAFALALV
Sequence of SQR of 06STD024 (SDHC / altC) mitochondria (O42772 19-297): as the sequence (O42772 19-297) above
Sequence of SQR of 06STD024 (SDHC / altC) mitochondria (F9X9V6 1-193): as the sequence (F9X9V6 entry or part of it) above
Sequence of SQR of 06STD024 (SDHC / altC) mitochondria (F9XH52 44-187): as the sequence (F9XH52 entry or part of it) above
Sequence of SQR of 06STD024 (SDHC / altC) mitochondria (F9WWR1 29-643 partner): as the sequence (F9WWR1 entry or part of it) above
Sequence of altC-SQR (altC) of D024 SDHC1 KO mitochondria (A0A1X7RQW2 36-181): as the sequence (A0A1X7RQW2 36-181) above
Sequence of altC-SQR (altC) of D024 SDHC1 KO mitochondria (O42772 20-297): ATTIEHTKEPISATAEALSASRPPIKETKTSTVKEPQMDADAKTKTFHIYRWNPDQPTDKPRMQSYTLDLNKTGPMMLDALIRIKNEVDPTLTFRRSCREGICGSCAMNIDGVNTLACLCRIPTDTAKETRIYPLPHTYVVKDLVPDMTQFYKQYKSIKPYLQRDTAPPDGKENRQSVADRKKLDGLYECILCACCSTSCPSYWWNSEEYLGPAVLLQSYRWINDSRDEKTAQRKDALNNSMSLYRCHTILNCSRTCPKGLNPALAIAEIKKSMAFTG
Sequence of altC-SQR (altC) of D024 SDHC1 KO mitochondria (F9X9V6 1-193): as the sequence (F9X9V6 entry or part of it) above
Sequence of altC-SQR (altC) of D024 SDHC1 KO mitochondria (F9WWR1 41-643 partner): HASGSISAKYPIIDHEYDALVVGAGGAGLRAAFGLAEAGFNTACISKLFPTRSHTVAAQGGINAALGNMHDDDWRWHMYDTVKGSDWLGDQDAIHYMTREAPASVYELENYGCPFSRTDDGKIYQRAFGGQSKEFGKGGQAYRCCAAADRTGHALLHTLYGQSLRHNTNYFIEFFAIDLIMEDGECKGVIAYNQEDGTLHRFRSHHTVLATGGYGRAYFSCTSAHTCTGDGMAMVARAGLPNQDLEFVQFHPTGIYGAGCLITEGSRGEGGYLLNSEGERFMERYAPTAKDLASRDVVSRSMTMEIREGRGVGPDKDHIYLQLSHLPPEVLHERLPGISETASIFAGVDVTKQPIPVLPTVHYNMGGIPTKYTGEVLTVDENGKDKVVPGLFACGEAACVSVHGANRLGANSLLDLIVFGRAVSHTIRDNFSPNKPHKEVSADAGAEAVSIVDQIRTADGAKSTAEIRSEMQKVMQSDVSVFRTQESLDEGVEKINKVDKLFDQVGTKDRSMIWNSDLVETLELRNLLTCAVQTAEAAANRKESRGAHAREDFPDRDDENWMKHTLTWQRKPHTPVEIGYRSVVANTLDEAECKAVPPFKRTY

Compound	RF (resistance factor), D024 SDHC1 KO (altC) [1]	IC50 [1]	RF (resistance factor), D024 SDHC3 KO (SDHC) [2]	IC50 [2]	RF (resistance factor), pTet Repressed (SDHC / altC) [3]	IC50 [3]	IC50 [4]	IC50 [5]	RF (resistance factor), 06STD024 (SDHC / altC) [6]	IC50 [6]	EC50 [8, 9]	EC50 [8, 10]	EC50 [8, 11]	EC50 [8, 12]	EC50 [8, 13]	EC50 [8, 14]	EC50 [8, 15]	EC50 [8, 16]	EC50 [8, 17]	EC50 [8, 18]	other results
CC(C)CC(C)c1sccc1NC(=O)c1cn(C)nc1C(F)(F)F (stereo not shown) [Penthiopyrad]	1.2	1.6 ± 0.7 nM	1.1	1.5 ± 0.3 nM	1.4	1.9 ± 0.4 nM	1.4 ± 0.3 nM	1.8 ± 0.1 nM	1.4	2 ± 0.8 nM											
Cc1cc(OC(C)C)ccc1C(=O)C(C)(C)NC(=O)c1sccc1C [Isofetamid]		> 50000 nM					0.9 ± 0.1 nM														Growth on isofetamid-supplemented agar plate ([7]; isolate 09STIR20.1 (ZtSDHC3 frameshift), 10 DPI, 5 mg.L^-1): did not grow; Growth phenotype on SDHI-amended plate ([7]; strain 06STD024): Very strong; Growth phenotype on SDHI-amended plate ([7]; strain 07STGB009): Very strong; Growth phenotype on SDHI-amended plate ([7]; strain 09STD041): Strong; Growth phenotype on SDHI-amended plate ([7]; strain 09STD053): Strong; Growth phenotype on SDHI-amended plate ([7]; strain 09STF011): Strong; Growth phenotype on SDHI-amended plate ([7]; strain 09STF037): Weak; Growth phenotype on SDHI-amended plate ([7]; strain 09STF112): Strong; Growth phenotype on SDHI-amended plate ([7]; strain 09STIR20.3): Weak; Growth phenotype on SDHI-amended plate ([7]; strain IPO323): No; Growth phenotype on SDHI-amended plate ([7]; strain IPO94269): No
O=C(Nc1ccccc1-c1ccc(Cl)cc1)c1cccnc1Cl [Boscalid]	3.2	54.4 ± 12.9 nM	1.0	16.4 ± 2.4 nM	1.8	29.8 ± 4 nM	17 ± 3.7 nM	40.3 ± 2.7 nM	3.6	61.9 ± 16 nM	1180 nM	514 nM	644 nM	512 nM	581 nM	591 nM	720 nM	798 nM	3020 nM	384 nM	EC50 [8, 19]: 853 nM; EC50 [8, 20]: 2160 nM; EC50 [8, 21]: 2050 nM; EC50 [8, 22]: 637 nM; EC50 [8, 23]: 681 nM; EC50 [8, 24]: 776 nM; EC50 [8, 25]: 1680 nM; EC50 [8, 26]: 768 nM; EC50 [8, 27]: 270 nM; EC50 [8, 28]: 1300 nM; EC50 [8, 29]: 1420 nM; EC50 [8, 30]: 1450 nM; EC50 [8, 31]: 1460 nM
CC1=C(C(=O)Nc2ccccc2)SCCO1 [Carboxin]	0.9	865 ± 215 nM	0.8	775 ± 94.5 nM	1.2	1200 ± 85 nM	969 ± 182 nM	762 ± 164 nM	0.8	731 ± 84.4 nM	4620 nM	6340 nM	13200 nM	9370 nM	9620 nM	6840 nM	6780 nM	13200 nM	10200 nM	8550 nM	EC50 [8, 19]: 10800 nM; EC50 [8, 20]: 10400 nM; EC50 [8, 21]: 11200 nM; EC50 [8, 22]: 20600 nM; EC50 [8, 23]: 19600 nM; EC50 [8, 24]: 7520 nM; EC50 [8, 25]: 12700 nM; EC50 [8, 26]: 8080 nM; EC50 [8, 27]: 15700 nM; EC50 [8, 28]: 6980 nM; EC50 [8, 29]: 7420 nM; EC50 [8, 30]: 6930 nM; EC50 [8, 31]: 8460 nM
CON(C(=O)c1cn(C)nc1C(F)F)[C@@H](C)Cc1ccc(Cl)cc1Cl [Compound 3]		22.7 ± 0.8 nM	1.2	0.8 ± 0.13 nM			0.7 ± 0.2 nM			26.4 ± 1.2 nM											

Reference: paper PMC6941823, “A dispensable paralog of succinate dehydrogenase subunit C mediates standing resistance towards a subclass of SDHI fungicides in Zymoseptoria tritici” (PLoS Pathogens, 2019)
